The target of one assay is T1, TR-β (Homo sapiens, UniProt P10828).
T1 sequence (P10828 1-461): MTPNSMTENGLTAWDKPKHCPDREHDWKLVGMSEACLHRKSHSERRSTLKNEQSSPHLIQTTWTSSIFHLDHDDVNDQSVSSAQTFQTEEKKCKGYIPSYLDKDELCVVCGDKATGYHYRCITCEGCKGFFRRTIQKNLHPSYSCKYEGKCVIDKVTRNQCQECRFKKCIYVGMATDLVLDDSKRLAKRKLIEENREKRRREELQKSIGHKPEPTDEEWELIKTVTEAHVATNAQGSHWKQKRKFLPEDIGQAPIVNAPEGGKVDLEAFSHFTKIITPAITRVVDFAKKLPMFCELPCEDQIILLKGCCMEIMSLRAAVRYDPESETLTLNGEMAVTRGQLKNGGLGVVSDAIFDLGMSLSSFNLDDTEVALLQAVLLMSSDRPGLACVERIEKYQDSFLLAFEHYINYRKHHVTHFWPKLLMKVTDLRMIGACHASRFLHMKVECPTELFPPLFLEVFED
As to the kind of experiment: In vitro TR-β activity (in-house protocol). The class given is cell-based. The note with it: read-out: TR-β Fold Induction w.r.t T3(100 nm); for fold induction at 0.001 µM: Conc. 1 nM; for fold induction at 0.01 µM: Conc. 10 nM; for fold induction at 0.1 µM: Conc. 100 nM; for fold induction at 1 µM: Conc. 1000 nM. As for the experimental part: (§1) In vitro TR-α & TR-β activities were determined as per in-house protocols and the results of representative compounds are provided in tables 1 & 2 below as a proof of the efficacies of the novel class of compounds disclosed above.

In a further assay the target is T2, TR-α (Homo sapiens, UniProt P10827).
T2 sequence (P10827 1-410 isoform P10827-2): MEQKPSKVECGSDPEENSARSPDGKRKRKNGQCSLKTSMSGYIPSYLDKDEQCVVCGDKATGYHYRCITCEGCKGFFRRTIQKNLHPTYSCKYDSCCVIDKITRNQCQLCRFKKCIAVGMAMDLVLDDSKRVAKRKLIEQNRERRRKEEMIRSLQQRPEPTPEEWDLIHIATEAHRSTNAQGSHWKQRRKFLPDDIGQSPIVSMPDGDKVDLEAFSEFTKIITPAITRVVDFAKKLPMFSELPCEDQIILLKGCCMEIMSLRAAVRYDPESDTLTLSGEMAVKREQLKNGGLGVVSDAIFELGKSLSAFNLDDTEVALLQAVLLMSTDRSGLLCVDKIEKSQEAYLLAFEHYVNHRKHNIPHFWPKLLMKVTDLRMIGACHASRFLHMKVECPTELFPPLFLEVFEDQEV
The assay can be described thus: In vitro TR-α activity (in-house protocol). The note with it: read-out: TR-α Fold Induction w.r.t T3(100 nm); for fold induction at 0.001 µM: Conc. 1 nM; for fold induction at 0.01 µM: Conc. 10 nM; for fold induction at 0.1 µM: Conc. 100 nM; for fold induction at 1 µM: Conc. 1000 nM. The format is cell-based. The method, then:
as §1

As to `CCC(ON=Cc1cc(Br)c(Oc2ccc(O)c(Cc3ccccc3)c2)c(Br)c1)C(=O)O` (centres unmarked) [Example 17, 2-(((4-(3-benzyl-4-hydroxyphenoxy)-3,5-dibromobenzylidene)amino)oxy)butanoic acid], on TR-β, the fold induction at 0.001 µM turned out to be 21.2, the fold induction at 0.01 µM was 31.3, the fold induction at 0.1 µM was determined as 81.5 and the fold induction at 1 µM was 85.6. On TR-α, the fold induction at 0.001 µM came out at 21.6, the fold induction at 0.01 µM worked out at 38.5, the fold induction at 0.1 µM is 66.2 and the fold induction at 1 µM was 109.
With `CC(ON=Cc1cc(Br)c(Oc2ccc(O)c(C(O)c3cccc(Cl)c3)c2)c(Br)c1)C(=O)O` (centres unmarked) [Example 34, 2-(((3,5-dibromo-4-(3-((3-chlorophenyl)(hydroxy)methyl)-4-hydroxyphenoxy)benzylidene)amino)oxy)propanoic acid], on TR-β, the fold induction at 0.001 µM was found to be 10.9, the fold induction at 0.01 µM was determined as 9.74, the fold induction at 0.1 µM was 21.4 and the fold induction at 1 µM amounted to 47.5. In addition, on TR-α, the fold induction at 0.001 µM was 14.1, the fold induction at 0.01 µM amounted to 11.8, the fold induction at 0.1 µM was determined as 17.9 and the fold induction at 1 µM came to 39.8.
For `CCC(ON=Cc1cc(Br)c(Oc2ccc(O)c(-c3ccccc3)c2)c(Br)c1)C(=O)O` (centres unmarked) [Example 21, 2-(((3,5-dibromo-4-((6-hydroxy-[1,1′-biphenyl]-3-yl)oxy)benzylidene)amino)oxy)butanoic acid], on TR-β, the fold induction at 0.001 µM was found to be 12.9, the fold induction at 0.01 µM turned out to be 18.2, the fold induction at 0.1 µM was determined as 51.6 and the fold induction at 1 µM is 63.8. At TR-α, the fold induction at 0.001 µM was determined as 12.8, the fold induction at 0.01 µM was determined as 16.6, the fold induction at 0.1 µM was determined as 50.4 and the fold induction at 1 µM was found to be 105.
For the compound `O=C(O)CON=Cc1cc(Br)c(Oc2ccc(O)c(C(=O)c3ccc(Cl)cc3)c2)c(Br)c1` [Example 28, 2-(((3,5-dibromo-4-(3-(4-chlorobenzoyl)-4-hydroxyphenoxy)benzylidene)amino)oxy)acetic acid], on TR-β, the fold induction at 0.001 µM was 10.2, the fold induction at 0.01 µM amounted to 26.4, the fold induction at 0.1 µM stood at 61.7 and the fold induction at 1 µM stood at 58.9. In addition, on TR-α, the fold induction at 0.001 µM came to 16.2, the fold induction at 0.01 µM came out at 25, the fold induction at 0.1 µM came out at 40.4 and the fold induction at 1 µM was determined as 54.5.
As for `O=C(O)CON=Cc1cc(Br)c(Oc2ccc(O)c(S(=O)(=O)N3CCCC3)c2)c(Br)c1` [Example 41, 2-(((3,5-dibromo-4-(4-hydroxy-3-(pyrrolidin-1-ylsulfonyl)phenoxy)benzylidene)amino)oxy)acetic acid], on TR-β, the fold induction at 0.001 µM amounted to 6.51, the fold induction at 0.01 µM stood at 6.74, the fold induction at 0.1 µM is 14 and the fold induction at 1 µM turned out to be 58.1. Moreover, at TR-α, the fold induction at 0.001 µM amounted to 12.6, the fold induction at 0.01 µM was determined as 12.8, the fold induction at 0.1 µM is 17.7 and the fold induction at 1 µM came out at 46.1.
`CC(C)c1cc(Oc2c(Cl)cc(C=NOCC(=O)O)cc2Cl)ccc1O` [Example 1, 2-(((3,5-dichloro-4-(4-hydroxy-3-isopropylphenoxy)benzylidene)amino)oxy)acetic acid]: at TR-β, the fold induction at 0.001 µM worked out at 7.72, the fold induction at 0.01 µM was determined as 20.6, the fold induction at 0.1 µM is 52.6 and the fold induction at 1 µM was 53.4. Besides, at TR-α, the fold induction at 0.001 µM came to 11.8, the fold induction at 0.01 µM came to 25.7, the fold induction at 0.1 µM is 73.5 and the fold induction at 1 µM was 99.
On to `CC(ON=Cc1cc(Br)c(Oc2ccc(O)c(-c3ccccc3)c2)c(Br)c1)C(=O)O` (centres unmarked) [Example 11, 2-(((3,5-dibromo-4-((6-hydroxy-[1,1′-biphenyl]-3-yl)oxy)benzylidene)amino)oxy)propanoic acid], for which, at TR-β, the fold induction at 0.001 µM stood at 16.1, the fold induction at 0.01 µM was 39.3, the fold induction at 0.1 µM was determined as 73.8 and the fold induction at 1 µM was found to be 65.3. For the same compound, on TR-α, the fold induction at 0.001 µM turned out to be 16.2, the fold induction at 0.01 µM stood at 32.8, the fold induction at 0.1 µM stood at 70.2 and the fold induction at 1 µM was 49.4.
Regarding `CCC(ON=Cc1cc(Br)c(Oc2ccc(O)c(C(C)CC)c2)c(Br)c1)C(=O)O` (centres unmarked) [Example 19, 2-(((3,5-dibromo-4-(3-(sec-butyl)-4-hydroxyphenoxy)benzylidene)amino)oxy)butanoic acid], on TR-β, the fold induction at 0.001 µM amounted to 20.2, the fold induction at 0.01 µM was 69.7, the fold induction at 0.1 µM turned out to be 86.2 and the fold induction at 1 µM was determined as 90.8. Further, on TR-α, the fold induction at 0.001 µM is 34.4, the fold induction at 0.01 µM was determined as 80.8, the fold induction at 0.1 µM amounted to 64.2 and the fold induction at 1 µM was 109.
In the case of `CC(ON=Cc1cc(Br)c(Oc2ccc(O)c(C(=O)c3ccc(Cl)cc3)c2)c(Br)c1)C(=O)O` (centres unmarked) [Example 26, 2-(((3,5-dibromo-4-(3-(4-chlorobenzoyl)-4-hydroxyphenoxy)benzylidene)amino)oxy)propanoic acid], on TR-β, the fold induction at 0.001 µM came to 9.62, the fold induction at 0.01 µM stood at 13.2, the fold induction at 0.1 µM stood at 41.2 and the fold induction at 1 µM was 76.2. In addition, at TR-α, the fold induction at 0.001 µM came out at 12.1, the fold induction at 0.01 µM was found to be 13.9, the fold induction at 0.1 µM was 34.9 and the fold induction at 1 µM came out at 64.5.
Regarding `CC(C)NS(=O)(=O)c1cc(Oc2c(Br)cc(C=NOC(C)C(=O)O)cc2Br)ccc1O` (centres unmarked) [Example 37, 2-(((3,5-dibromo-4-(4-hydroxy-3-(N-isopropylsulfamoyl)phenoxy)benzylidene)amino)oxy)propanoic acid], on TR-β, the fold induction at 0.001 µM was 8.41, the fold induction at 0.01 µM was 9.07, the fold induction at 0.1 µM was 17.7 and the fold induction at 1 µM was 60.5. For the same compound, at TR-α, the fold induction at 0.001 µM was 11.2, the fold induction at 0.01 µM amounted to 11.5, the fold induction at 0.1 µM is 17.6 and the fold induction at 1 µM worked out at 45.6.
Take `O=C(O)CON=Cc1cc(Br)c(Oc2ccc(O)c(C(O)c3ccc(Br)cc3)c2)c(Br)c1` (centres unmarked) [Example 32, 2-(((3,5-dibromo-4-(3-((4-bromophenyl)(hydroxy)methyl)-4-hydroxyphenoxy)benzylidene)amino)oxy)acetic acid]: at TR-β, the fold induction at 0.001 µM was 11.8, the fold induction at 0.01 µM was 12.9, the fold induction at 0.1 µM turned out to be 14.5 and the fold induction at 1 µM was 65. For the same compound, on TR-α, the fold induction at 0.001 µM was 20.4, the fold induction at 0.01 µM came to 16.8, the fold induction at 0.1 µM came to 22.8 and the fold induction at 1 µM is 69.8.
As to `CCC(C)c1cc(Oc2c(Cl)cc(C=NOCC(=O)O)cc2Cl)ccc1O` (centres unmarked) [Example 2, 2-(((4-(3-(sec-butyl)-4-hydroxyphenoxy)-3,5-dichlorobenzylidene)amino)oxy)acetic acid], on TR-β, the fold induction at 0.001 µM was determined as 14, the fold induction at 0.01 µM is 34.5, the fold induction at 0.1 µM amounted to 79.4 and the fold induction at 1 µM was 115. In addition, on TR-α, the fold induction at 0.001 µM worked out at 10.2, the fold induction at 0.01 µM came out at 26.7, the fold induction at 0.1 µM turned out to be 66.7 and the fold induction at 1 µM stood at 108.
For `CC(ON=Cc1cc(Br)c(Oc2ccc(O)c(S(=O)(=O)N3CCCC3)c2)c(Br)c1)C(=O)O` (centres unmarked) [Example 42, 2-(((3,5-dibromo-4-(4-hydroxy-3-(pyrrolidin-1-ylsulfonyl)phenoxy)benzylidene)amino)oxy)propanoic acid], on TR-β, the fold induction at 0.001 µM worked out at 7.3, the fold induction at 0.01 µM is 4.48, the fold induction at 0.1 µM is 15 and the fold induction at 1 µM turned out to be 60.8. At TR-α, the fold induction at 0.001 µM was 17.7, the fold induction at 0.01 µM was found to be 9.9, the fold induction at 0.1 µM was found to be 20.4 and the fold induction at 1 µM was determined as 91.4.

Source of the values: US20110301200A1, “THYROID RECEPTOR LIGANDS” (CADILA HEALTHCARE LIMITED, priority 2008, published 2011).
